# Test results taken from US5491152A, “Derivatives of cyclic ethers and sulfides for the treatment of atherosclerosis” (The Du Pont Merck Pharmaceutical Company, priority 1994, dated 1996).
# Tested on: ACAT
# Assay: Systemic availability of ACAT inhibitors (Ex Vivo Assay): ACAT activity in livers from orally dosed rats
# Design: species or system rat (male (CD) Sprague Dawley)
# Conditions: rat, oral gavage 10 mg/kg, days 1-3, livers taken 3 h after last dose; class symbols
# Experimental: B. Assay for the Systemic Availability of ACAT Inhibitors (Ex Vivo Assay)
# The inhibition of ACAT activity in livers obtained from rats orally dosed with an inhibitor was used as a determination of the compound's systemic availability. The ability of ACAT inhibitors to affect cholesterol esterification in livers obtained from dosed animals was tested as follows. This assay is also referred to herein as the Ex Vivo Assay. Male (CD) Sprague Dawley rats weighing from 190-210 g were fed purina lab chow ad libitum. Rats, three per group, were orally gavaged with 10 mg/kg of active ACAT inhibitor. The compounds were dissolved in ethanol (10% of final volume); a PEG solution (80 propylene glycol:20 polyethylene glycol 400, w:w) was added and the compound was mixed completely prior to dosing. A control group received the dosing vehicle alone. The animals were dosed once on Day 1 (am), twice on Day 2 (am and pm) and once on the morning of Day 3. Three hours after the last dose animals were euthanized using CO2. Livers were perfused with a 0.25M sucrose solution, excised, and frozen. Livers were thawed and resuspended in buffer (2 mL/g, 0.1M Phosphate, pH 7.4, 1.0 mM glutathione, 0.5 mM EDTA, 20 μM leupeptin, 60 μM benzamidine, and 0.25M sucrose). The samples were homogenized and post nuclear microsomes were obtained by centrifugation: 1.000× g for 5 min. and the resulting supernatant, 100,000× g for 1 hr. Microsomes were resuspended in phosphate buffer to approximately 25 mg/mL and frozen at -70° C. until assayed for ACAT activity.
# ACAT assays contained in a final volume of 200 μl:100 ug microsomal protein, 75 μM ^14 C-oleoyl-CoA (10,000 dpm/nmol), 0.75 mg bovine serum albumin, 0.1M phosphate buffer, pH 7.4, and 1 mM glutathione. All components, except the oleoyl-CoA, were preincubated for 15 min at 37° C. prior to the initiation of the reaction by the addition of oleoyl-CoA. The assay was terminated after 10 min and ACAT activity determined as described in section A above. The average specific activity of ACAT in the vehicle control group was 661 +/- 64 pmol/min/mg (SEM). The data (% inhibition) are expressed as 100 minus the % ACAT activity in livers from dosed animals versus those from a vehicle control group.
row,Compound,"Inhibition of ACAT, Ex Vivo Assay (% inhibition)"
1,CCCCC1=C(CCCC)CC(C(=O)Nc2c(Cl)cccc2Cl)SC1 (stereo not drawn) [Example 42],+ (10-49%)
2,"CCCCCC1C=CC(CCCCC)C(C(=O)Nc2c(C(C)C)cccc2C(C)C)S1 (stereo not drawn) [Example 66, N-(2,6-diisopropylphenyl)-3,6-dihydro-3,6-dipentyl-2H-thiopyran-2-carboxamide]",++ (>50%)
3,"CCCCCC1C=CC(CCCCC)C(C(=O)Nc2c(SC)cc(C)nc2SC)S1 (stereo not drawn) [Example 70, N-[2,4-bis(methylthio)-6-methylpyridin-3-yl]-3,6-dipentyl-2,3-dihydro-2H-thiopyran-2-carboxamide]",++ (>50%)

# Same assay, conditions: rat, oral gavage 10 mg/kg, days 1-3, livers taken 3 h after last dose; given as number
row,Compound,"Inhibition of ACAT, Ex Vivo Assay (% inhibition) [%]"
1,CCCCCC1=C(CCCCC)CC(C(=O)Nc2c(SC)cc(C)nc2SC)SC1 (stereo not drawn) [Example 31],< 10
2,CCCC1C=CC(CCC)C(C(=O)Nc2c(SC)cc(C)nc2SC)S1 (stereo not drawn) [Example 140],< 10

# Biological target: T1, Acyl-CoA: Cholesterol Acyltransferase (ACAT) (Rattus norvegicus, UniProt Q7TQM4)
# T1 construct: Microsomes were obtained by differential centrifugation; from tissue; host or cells: liver microsomes of male Sprague Dawley rats
# T1 sequence (Q7TQM4 1-524): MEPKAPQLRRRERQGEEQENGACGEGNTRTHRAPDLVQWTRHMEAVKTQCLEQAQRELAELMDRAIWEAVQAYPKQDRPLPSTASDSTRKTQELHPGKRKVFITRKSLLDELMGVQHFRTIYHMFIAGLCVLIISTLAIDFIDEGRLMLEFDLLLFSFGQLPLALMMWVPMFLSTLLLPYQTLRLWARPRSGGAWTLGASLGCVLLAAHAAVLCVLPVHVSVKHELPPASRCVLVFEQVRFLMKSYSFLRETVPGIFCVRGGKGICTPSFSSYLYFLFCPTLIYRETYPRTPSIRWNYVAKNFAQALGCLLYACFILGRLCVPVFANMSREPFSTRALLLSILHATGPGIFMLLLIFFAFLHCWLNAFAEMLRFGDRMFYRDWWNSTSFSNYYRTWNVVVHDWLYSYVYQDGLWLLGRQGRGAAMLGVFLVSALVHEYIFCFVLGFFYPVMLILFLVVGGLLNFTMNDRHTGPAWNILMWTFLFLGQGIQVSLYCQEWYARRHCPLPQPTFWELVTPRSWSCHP
# Assay: Inhibition of Acyl-CoA: Cholesterol Acyltransferase (ACAT) in hepatic microsomes (In Vitro Assay)
# Assay type: biochemical, rat (male Sprague Dawley)
# Conditions: 75 μM 14C-oleoyl-CoA, pH 7.4, 37° C., 15 min preincubation, 10 min
# Experimental: A. Assay of the Inhibition of Acyl-CoA: Cholesterol Acyltransferase (ACAT) in Hepatic Microsomes (In Vitro Assay)
# The ability of the compounds to inhibit ACAT, the enzyme responsible for the intracellular synthesis of cholesteryl esters, was tested as follows. Male Sprague Dawley rats weighing 150-300 g, were fed rat chow ad libitum. The animals were fasted for twenty-four hours prior to being euthanized by CO2. The livers were perfused in situ with 50 ml of cold 0.25 sucrose, excised, and homogenized in three volumes of 0.1M phosphate buffer, pH 7.4, that contained 0.5 mM EDTA (ethylenediamine-tetraacetic acid), 1.0 mM glutathione, 0.25M sucrose and 20 mM leupeptin. Microsomes were obtained by differential centrifugation; the supernatant from an initial spin at 15,000× g for 15 minutes was centrifuged at 105,000× g for 1 hour to pellet the microsomes. The microsomes were suspended in 0.1M phosphate buffer, pH 7.4 with 1 mM GSH and stored at -70° C. Microsomes were used within one month of preparation.
# The control assay in a final volume of 200 μl consisted of 200 μg of microsomal protein, 75 μM ^14 C-oleoyl-CoA (10,000 dpm/nmol) in 0.1M phosphate, pH 7.4, that contained 1 mM glutathione. Compounds were added in 5 μl of DMSO (dimethyl sulfoxide) and additional controls were run with DMSO only. All components, except the oleoyl-CoA, were preincubated for 15 min. at 37° C. prior to the initiation of the reaction by the addition of oleoyl-CoA. The assay was terminated after 10 min by the addition of 4 ml of chloroform:methanol (2:1, v/v). 20,000 dpm of ^3 H-cholesteryl oleate and 10 μg of unlabeled cholesteryl oleate and oleic acid were added as an internal standard and carriers, respectively. After allowing 10 min. for lipid extraction, the samples were centrifuged at 1,000× g for 10 min to separate the solvent layers. The chloroform layer containing the neutral lipids was spotted onto a Baker SI250-Pa silica gel TLC plate and the plate developed using a hexane:diethyl ether:acetic acid (170:30:1) v/v/v) mobile phase. The lipids were visualized by their interaction with iodine vapor and the cholesteryl ester spot was scraped into a scintillation vial and counted. The specific activity of ACAT in the control incubation averaged 260 pmol/min/mg microsomal protein. The data obtained are expressed as the concentration at which ACAT activity is inhibited by 50% (IC50).
row,IC50 [µM],Compound
1,< 2,CCCCCC1C=CC(CCCCC)C(C(=O)Nc2c(Cl)cccc2Cl)S1 (stereo not drawn) [Example 68]
2,3 to 10,CCCCCC1C=CC(CCCCC)C(C(=O)Nc2ccc(F)cc2F)S1 (stereo not drawn) [Example 69]
3,< 2,"CCCCCC1C=CC(CCCCC)C(C(=O)Nc2c(SC)cc(C)nc2SC)S1 (stereo not drawn) [Example 70, N-[2,4-bis(methylthio)-6-methylpyridin-3-yl]-3,6-dipentyl-2,3-dihydro-2H-thiopyran-2-carboxamide]"
4,< 2,CCCCCC1=CC(CCCCC)C(C(=O)Nc2c(C(C)C)cccc2C(C)C)SC1 (stereo not drawn) [Example 79]
5,11 to 50,CC1=C(C)CC(C(=O)Nc2c(C(C)C)cccc2C(C)C)OC1 (stereo not drawn) [Example 104]
6,11 to 50,"CSc1cc(C)nc(SC)c1NC(=O)C1CC(C)=C(C)CO1 (stereo not drawn) [Example 106, N-[2,4-bis(methylthio)-6-methyl-3-pyridyl]-2,3-dihydro-4,5-dimethyl-2H-pyran-2-carboxamide]"
7,< 2,CCCCCC1C=CC(CCCCC)[S+]([O-])C1C(=O)Nc1c(SC)cc(C)nc1SC (stereo not drawn) [Example 120]
8,< 2,CSc1cc(C)nc(SC)c1NC(=O)C1SC(c2ccccc2)C=CC1c1ccccc1 (stereo not drawn) [Example 132]
9,< 2,CCCC1C=CC(CCC)C(C(=O)Nc2c(SC)cc(C)nc2SC)S1 (stereo not drawn) [Example 140]
10,3 to 10,CSc1cc(C)nc(SC)c1NC(=O)C1SCC=CC1OC(C)=O (stereo not drawn) [Example 168]
11,< 2,CSc1cc(C)nc(SC)c1NC(=O)C1SC(CCCCl)C=CC1CCCCl (stereo not drawn) [Example 180]
12,< 2,CSc1cc(C)nc(SC)c1NC(=O)C1SC(CCCSC2CCCCC2)C=CC1CCCSC1CCCCC1 (stereo not drawn) [Example 184]
13,< 2,"CCCCCCSC1CC(=O)CC(C(=O)Nc2c(SC)cc(C)nc2SC)S1 (stereo not drawn) [Example 402, N-[2,4-bis(methylthio)-6-methylpyridin-3-yl]-6-hexylthio-2,3,5,6-tetrahydro-4H-thiopyran-4-one-2-carboxamide]"

# More lines, now with the values behind:
row,Compound,IC50 [µM]
1,"CCCCO[C@H]1[C@@H](OC)O[C@H](C(=O)Nc2c(SC)cc(C)nc2SC)C(OCc2ccccc2)[C@@H]1OCCCC (stereo in doubt) [Example 426, (2S,3R,4S,5R,6S)-N-[2,4-bis(methylthio)-6-methylpyridin-3-yl]-3-benzyloxy-4,5-dibutoxy-6-methoxy-3,4,5,6-tetrahydro-2H-pyran-2-carboxamide]",11 to 50
2,CCCCCCC1=C(CCCCCC)CC(C(=O)Nc2c(C(C)C)cccc2C(C)C)SC1 (stereo not drawn) [Example 1],< 2
3,CCCCCCC1=C(CCCCCC)CC(C(=O)Nc2c(C)cccc2C)SC1 (stereo not drawn) [Example 2],< 2
4,CCCCCCC1=C(CCCCCC)CC(C(=O)Nc2c(Cl)cccc2Cl)SC1 (stereo not drawn) [Example 3],3 to 10
5,CC(C)(C)C1C=CCC(C(=O)Nc2ccc(F)cc2F)S1 (stereo not drawn) [Example 17],11 to 50
6,"CCCCCC1=C(CCCCC)CC(C(=O)Nc2c(C(C)C)cccc2C(C)C)SC1 (stereo not drawn) [Example 27, N-(2,6-diisopropylphenyl)-3,6-dihydro-4,5-dipentyl-2H-thiopyran-2-carboxamide]",< 2
7,CCCCCC1=C(CCCCC)CC(C(=O)Nc2c(C)cccc2C)SC1 (stereo not drawn) [Example 28],< 2
8,CCCCCC1=C(CCCCC)CC(C(=O)Nc2c(Cl)cccc2Cl)SC1 (stereo not drawn) [Example 29],< 2
9,CCCCCC1=C(CCCCC)CC(C(=O)Nc2ccc(F)cc2F)SC1 (stereo not drawn) [Example 30],11 to 50
10,CCCCCC1=C(CCCCC)CC(C(=O)Nc2c(SC)cc(C)nc2SC)SC1 (stereo not drawn) [Example 31],< 2
11,CCCCCC1=C(CCCCC)CC(C(=O)Nc2cncnc2SC)SC1 (stereo not drawn) [Example 32],3 to 10
12,CCCCCC1=C(CCCCC)CC(C(=O)Nc2cccnc2SC)SC1 (stereo not drawn) [Example 33],11 to 50
13,CCCCCC1=C(CCCCC)CC(C(=O)Nc2ccc(SC)nc2)SC1 (stereo not drawn) [Example 34],11 to 50
14,CCCCCCCCC1=C(CCCCCCCC)CC(C(=O)Nc2c(SC)cc(C)nc2SC)SC1 (stereo not drawn) [Example 35],< 2
15,CCCCCC1=C(CCCCC)CC(C(=O)Nc2c(C)nn(C)c2SC)SC1 (stereo not drawn) [Example 39],< 2
16,CCCCC1=C(CCCC)CC(C(=O)Nc2c(C(C)C)cccc2C(C)C)SC1 (stereo not drawn) [Example 40],< 2
17,CCCCC1=C(CCCC)CC(C(=O)Nc2c(C)cccc2C)SC1 (stereo not drawn) [Example 41],< 2
18,CCCCC1=C(CCCC)CC(C(=O)Nc2c(Cl)cccc2Cl)SC1 (stereo not drawn) [Example 42],< 2
19,CC1=C(C)CC(C(=O)Nc2c(C(C)C)cccc2C(C)C)SC1 (stereo not drawn) [Example 53],3 to 10
20,CSc1cc(C)nc(SC)c1NC(=O)C1CC(C)=C(C)CS1 (stereo not drawn) [Example 57],< 2
21,"CCCCCC1C=CC(CCCCC)C(C(=O)Nc2c(C(C)C)cccc2C(C)C)S1 (stereo not drawn) [Example 66, N-(2,6-diisopropylphenyl)-3,6-dihydro-3,6-dipentyl-2H-thiopyran-2-carboxamide]",< 2
22,CCCCCC1C=CC(CCCCC)C(C(=O)Nc2c(C)cccc2C)S1 (stereo not drawn) [Example 67],< 2
23,"CCCCCOc1cc2c(cc1OC)CC(CCCC)CSC2C(=O)Nc1c(SC)cc(C)nc1SC (stereo not drawn) [Example 907, N-[2,4-bis(methylthio)-6-methylpyridin-3-yl]-4-butyl-7-methoxy-8-pentoxy-1,3,4,5-tetrahydro-2-benzothiepin-1-carboxamide]",< 2
24,"N-[2,6-bis(1-methylethyl)phenyl]-6,7-dimethoxy-1,2,3,4-tetrahydro-2-thianaphthalene-1-carboxamide [Example 613]",11 to 50
